Data set [1] can be described thus: Plasma pharmacokinetics in mice after oral administration. It is filed as in vivo. The note with it: mouse, male C57/Bl6 mice, oral 10 mg/kg; for AUC: sampling 15 min to 7 h, log-linear trapezoidal method, read-out: AUCplasma; for Cmax: suspension in 1% methylcellulose/0.1% Poloxamer 188. The protocol: (§1) Three series of in vivo tests were carried out with compounds representative of the invention, for the purpose of determining their pharmacokinetic plasma profile and their brain penetration.
1. Study of the Plasma Phannacokinectis in Mice After Oral Administration
Male C57/B16 mice (25-30 g) originating from the establishment Janvier, Le Genest-St-Isle, France were used for this study (9 mice per dose). The animals were fed with standard feed for rodents (Purina Mills, St. Louis, Mo.), placed in cages and subjected to light/darkness cycles of 12 h/12 h, the temperature of the room being maintained at 22±2° C. and the humidity level at 55±10%.
The mice were not deprived food before the administration. Water was provided at will throughout the study. The test compound was admistered orally at 10 mg/kg. For the oral administration at 10 mg/kg, the animals were green, by gavage, 10 mL/kg of a suspension of the test compound, prepared in 1% methylcellulose, 400 cps/0.1% Poloxamer 188/water.
The animals were sacrificed under anesthesia at times 15 min, 30 min, 1 h, 3 h and 7 h after gavage. The blood was collected at each time, and from each animal sacrificed 0.5 mL of blood collected in 1.5 mL tubes containing 20 μL of evaporated anticoagulant (solution of sodium heparinate at 1000 IU/mL) was centrifuged at 4500 g for 3 min in order to obtain approximately 200 μL of plasma. The plasma was divided up into 2 aliquots of 70 μL minimum, which were stoted at −20° C. until they were treated by protein precipitation and then analysis by liquid chromatography coupled to tandem mass spectrometry (LC-MS/MS) in order to quantify the compound tested.
The pharmacokinetic plasma parameters in the mice after oral administration were determined using a non-compartmental approach with the Phoenix WinNonLin software. The area under the curve (AUC0-1) was determined bv the log-linear trapezoidal method. The tesults are brought together in the following table.

The nature of data set [2]: Brain penetration in rats after intravenous administration. It counts as in vivo. The note with it: rat; for Kp at 4 h: male, Wistar, intravenous, 4 mg/kg, ratio of Cmax brain to Cmax plasma after the 4 hours of infusion, rats, read-out: Kp (partition coefficient between the brain and the plasma); for Cmax at 4 h: male Wistar rats, 4 mg/kg iv infusion into the jugular vein for 4 hours, plasma at end of infusion. The method, then:
as §1
2. Study of the Brain Penetration in Rats After Intravenous Administration
Male Wistar rats (250-300 g) originating from the establishment Janvier, Le Genest-St-Isle, France were used for this study (4 rats per study). The animals were fed with standard feed for rodents (Purina Mills, St. Louis, Mo.), placed in cages and subjected to light/darkness cycles of 12 h/12 h, the room temperature being maintained at 22±2° C. and the humidity level at 55±10%. The rats were not deprived food before the administration. Water was provided at will throughout the study.
The test compound was administered intravenously at 4 mg/kg by infusion into the jugular vein for 4 hours. For the intravenous administration, the animals were infused with 12 mL/kg of a solution of the test compound, prepared in 2% Cremophor EL/0.9% NaCl.
The animals were sacrificed under anesthesia after 4 hours of infusion. The blood and the brain were collected from each sacrificed animal 0.5 mL of blood collected in 1.5 mL tubes containing 20 μL of evaporated anticoagulant (solution of sodium heparinate at 1000 IU/mL) was centrifuged at 4500 g for 3 min in order to obtain approximately 200 μL of plasma. The plasma was divided up into 2 aliquots of 70 μL minimum, which were stored at −20° C. until they were treated by protein precipitation and then analysis by liquid chromatography coupled to tandem mass spectrometry (LC-MS/MS) in order to quantify the compound tested.
The brains were immersed in liquid nitrogen directly after they were removed, then stored at −20° C. for analysis. The brains were then ground in the presence of an aqueous/organic solvent mixture in order to obtain a homogenate. These homogenates were then centrifuged and the compound tested was extracted from the supernatant obtained, by liquid-liquid extraction, and then quantified by LC-MS/MS.
The brain penetration in the rats is represented by the Kp, which is the partition coefficient between the brain and the plasma. It is calculated by the ratio of the concentration measured in the brain (Cmax brain) and the plasma (Cmax plasma) after the 4 hours of infusion.

The next data set concerns the target T1, NURR-1/RXRγ (Homo sapiens, UniProt P48443).
T1 construct: expressed in transfected cells; host or cells: Cos-7 cells
In words: Transactivation test, NURR-1-Gal4/RXRγ, luciferase reporter in Cos-7 cells. It counts as cell-based. The note with it: for Emax: COS-7, induction level relative to reference XCT0135908 at 2×10^−5 M (=100%), read-out: hNurr1_RXRgFL Emax (%); for EC50: Cos-7 cells, NURR-1-Gal4/RXRγ, luciferase reporter, read-out: hNurr1_RXRgFL EC50.

For data set [3], the system named is dopaminergic neurons of primary culture of rat embryo mesencephalon treated with MPP+. Nature of the data set: Neuroprotection in primary culture of rat embryo mesencephalon treated with MPP+ (count of tyrosine hydroxylase expressing cells). It counts as cell-based. The following applies: recombinant human BDNF 10 ng/mL = 100%, 2 days with MPP+. The essentials:
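Rat embryo (E15) mesencephalon cultures, 5 days, then MPP+ with or without compound on day 6 for 2 days. Tyrosine hydroxylase-immunolabelled cells counted by image analysis; activity expressed as percent of recombinant human BDNF (10 ng/mL) reference, set at 100%.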

For a further data set, the target named is T2, NURR-1/RXRα (Homo sapiens, UniProt P19793).
T2 construct: expressed in transfected cells; host or cells: Cos-7 cells
Nature of the data set: Transactivation test, NURR-1-Gal4/RXRα, luciferase reporter in Cos-7 cells. The following applies: for Emax: COS-7, induction level relative to reference XCT0135908 at 2×10^−5 M (=100%), read-out: hNurr1_RXRaFL Emax (%); for EC50: Cos-7 cells, NURR-1-Gal4/RXRα, luciferase reporter, read-out: hNurr1_RXRaFL EC50. It counts as cell-based. (Reporter assays use an easily measured gene product as a stand-in for the process of interest.)

T1 sequence (P48443 whole entry): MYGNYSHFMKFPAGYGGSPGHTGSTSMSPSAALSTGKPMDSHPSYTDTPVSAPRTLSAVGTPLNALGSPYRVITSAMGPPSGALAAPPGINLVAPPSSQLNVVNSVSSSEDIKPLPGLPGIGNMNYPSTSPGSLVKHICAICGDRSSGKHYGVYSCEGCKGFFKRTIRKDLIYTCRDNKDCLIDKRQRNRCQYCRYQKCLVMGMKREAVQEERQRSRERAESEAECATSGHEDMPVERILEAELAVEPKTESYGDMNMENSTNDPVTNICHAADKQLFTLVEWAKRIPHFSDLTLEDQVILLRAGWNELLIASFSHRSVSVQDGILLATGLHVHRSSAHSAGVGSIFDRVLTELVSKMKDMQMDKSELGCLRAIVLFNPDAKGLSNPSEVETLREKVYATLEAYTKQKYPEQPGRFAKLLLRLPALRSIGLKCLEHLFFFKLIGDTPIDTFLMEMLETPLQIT
T1 sequence (P43354 whole entry partner): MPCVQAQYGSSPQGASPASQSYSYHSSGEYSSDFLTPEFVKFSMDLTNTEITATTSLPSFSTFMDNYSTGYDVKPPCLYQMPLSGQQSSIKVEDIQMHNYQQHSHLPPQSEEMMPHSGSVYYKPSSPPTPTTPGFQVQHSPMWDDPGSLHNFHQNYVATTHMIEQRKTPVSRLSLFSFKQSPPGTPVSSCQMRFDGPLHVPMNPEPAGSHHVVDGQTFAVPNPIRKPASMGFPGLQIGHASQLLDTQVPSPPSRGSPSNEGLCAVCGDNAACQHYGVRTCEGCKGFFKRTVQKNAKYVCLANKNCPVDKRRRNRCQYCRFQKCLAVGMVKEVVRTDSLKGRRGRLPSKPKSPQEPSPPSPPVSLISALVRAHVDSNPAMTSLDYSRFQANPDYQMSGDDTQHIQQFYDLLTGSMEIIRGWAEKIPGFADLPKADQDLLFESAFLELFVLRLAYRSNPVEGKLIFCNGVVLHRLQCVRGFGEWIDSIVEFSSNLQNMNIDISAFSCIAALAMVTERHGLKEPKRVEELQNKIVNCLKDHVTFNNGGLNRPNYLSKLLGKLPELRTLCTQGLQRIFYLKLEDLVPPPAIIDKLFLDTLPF
T1 sequence (P04386 1-147 partner limits assumed): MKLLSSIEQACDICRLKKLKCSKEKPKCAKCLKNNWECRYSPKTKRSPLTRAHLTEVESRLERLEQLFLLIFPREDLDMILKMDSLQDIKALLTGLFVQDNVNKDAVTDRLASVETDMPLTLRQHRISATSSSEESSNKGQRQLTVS
T2 sequence (P19793 whole entry): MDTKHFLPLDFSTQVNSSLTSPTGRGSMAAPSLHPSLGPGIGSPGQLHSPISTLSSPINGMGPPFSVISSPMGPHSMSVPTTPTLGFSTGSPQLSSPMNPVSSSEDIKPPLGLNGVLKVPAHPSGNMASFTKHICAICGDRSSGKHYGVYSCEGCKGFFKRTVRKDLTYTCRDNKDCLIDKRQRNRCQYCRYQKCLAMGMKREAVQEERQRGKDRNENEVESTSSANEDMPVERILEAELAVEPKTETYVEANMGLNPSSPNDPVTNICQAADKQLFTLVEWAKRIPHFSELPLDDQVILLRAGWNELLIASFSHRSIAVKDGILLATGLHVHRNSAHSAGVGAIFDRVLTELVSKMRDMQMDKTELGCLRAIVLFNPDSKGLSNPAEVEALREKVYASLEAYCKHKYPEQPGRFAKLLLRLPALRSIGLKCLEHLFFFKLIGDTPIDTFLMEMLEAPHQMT
T2 sequence (P43354 whole entry partner): as the sequence (P43354 whole entry partner) above
T2 sequence (P04386 1-147 partner limits assumed): as the sequence (P04386 1-147 partner limits assumed) above

Broadly, the Cmax is the highest concentration seen after dosing. In general, Kp refers to the ratio of the level in a tissue or fluid to that in plasma or blood. The term Emax denotes the greatest response seen or fitted, relative to the assay's reference. For orientation: EC50 means the concentration giving half of the maximal effect. `CC(C)(C)c1cc(-c2cccc(N3CC(C(=O)O)C3)c2)cc(C(C)(C)C)c1` [Example 11, 1[3-(3,5-di-tert-butylphenyl)phenyl]azetidine-3-carboxylic acid]: in data set [1], the AUC was 52000 ng·h/mL and the Cmax was 10300 ng/mL. Also, in data set [2], the Kp at 4 h came out at 1.22 and the Cmax at 4 h is 4140 ng/mL. Also, on NURR-1/RXRγ, the Emax was 100% and the concentration giving a half-maximal response (EC50) turned out to be 14 nM. Also, the “percentage of activity relative to the BDNF reference” value in data set [3] (compound 1 μM) came to 78%. Besides, in data set [3] (compound 10 μM), the “percentage of activity relative to the BDNF reference” value was 88%. Besides, at NURR-1/RXRα, the Emax turned out to be 105% and the EC50 stood at 11 nM.
Turning to `Cc1cc(-c2ccc(Cl)c(C(F)(F)F)c2)cc(N2CC(C(=O)O)C2)c1` [Example 22, 1-[3-[4-chloro-3-(trifluoromethyl)phenyl]-5-methylphenyl]azetidine-3-carboxylic acid], in data set [1], the AUC turned out to be 72200 ng·h/mL and the Cmax was determined as 18600 ng/mL. Besides, in data set [2], the Kp at 4 h was determined as 0.14 and the concentration peaked (Cmax at 4 h) at 9900 ng/mL. Moreover, at NURR-1/RXRγ, the Emax stood at 87% and the EC50 amounted to 13 nM. For the same molecule, in data set [3] (compound 1 μM), the “percentage of activity relative to the BDNF reference” value came to 79%. Besides, the “percentage of activity relative to the BDNF reference” value in data set [3] (compound 10 μM) was 103%. On NURR-1/RXRα, the Emax is 91% and the EC50 was 9 nM.
Turning to `Cc1cc(N2CC(C(=O)O)C2)cc(-n2ccc3cc(C(F)(F)F)ccc32)c1` [Example 50, 1-[3-methyl-5[5-(trifluoromethyl)indol-1-yl]phenyl]azetidine-3-carboxylic acid], in data set [1], the AUC came to 24300 ng·h/mL and the concentration peaked (Cmax) at 11400 ng/mL. In addition, in data set [2], the Kp at 4 h came to 0.19 and the concentration peaked (Cmax at 4 h) at 4920 ng/mL. Moreover, at NURR-1/RXRγ, the Emax was found to be 102% and the EC50 is 5 nM. For the same molecule, in data set [3] (compound 1 μM), the “percentage of activity relative to the BDNF reference” value is listed as 74%. The “percentage of activity relative to the BDNF reference” value in data set [3] (compound 10 μM) worked out at 91%. Further, on NURR-1/RXRα, the Emax came out at 95% and the EC50 was 2 nM.
In the case of `O=C(O)C1CN(c2cccc(-c3cc(C(F)(F)F)ccc3OCCc3cccs3)c2)C1` [Example 100, 1-[3-[2-[2-(2-thienyl)ethoxy]-5-(trifluoromethyl)phenyl]phenyl]azetidine-3-carboxylic acid], in data set [1], the AUC turned out to be 56600 ng·h/mL and the Cmax was 11200 ng/mL. For the same molecule, in data set [2], the Kp at 4 h came to 0.75 and the Cmax at 4 h is 6070 ng/mL. At NURR-1/RXRγ, the Emax came out at 63% and the EC50 came to 24 nM. In data set [3] (compound 1 μM), the “percentage of activity relative to the BDNF reference” value is listed as 100%. The “percentage of activity relative to the BDNF reference” value in data set [3] (compound 10 μM) amounted to 106%. At NURR-1/RXRα, the maximal response (Emax) was 63% and the concentration for a half-maximal effect (EC50) turned out to be 14 nM.
With `Cc1nnc(COc2ccc(C(F)(F)F)cc2-c2cccc(N3CC(C(=O)O)C3)c2)o1` [Example 110, 1-[3-[2-[(5-methyl-1,3,4-oxadiazol-2-yl)methoxy]-5-(trifluoromethyl)phenyl]phenyl]azetidine-3-carboxylic acid], in data set [1], the AUC was found to be 40100 ng·h/mL and the Cmax amounted to 8710 ng/mL. For the same molecule, in data set [2], the concentration ratio (Kp) at 4 h was 0.2 and the highest concentration (Cmax) at 4 h came to 10100 ng/mL. In addition, on NURR-1/RXRγ, the Emax was determined as 32% and the EC50 was 1720 nM. In addition, in data set [3] (compound 1 μM), the “percentage of activity relative to the BDNF reference” value is given as 74%. Also, the “percentage of activity relative to the BDNF reference” value in data set [3] (compound 10 μM) amounted to 102%. In addition, on NURR-1/RXRα, the Emax turned out to be 49% and the EC50 turned out to be 1510 nM.
In the case of `O=C(O)C1CN(c2cccc(N3CC4(CCC4)Oc4cc(C(F)(F)F)ccc43)c2)C1` [Example 113, 1-[3-[7-(trifluoromethyl)spiro[3H-1,4-benzoxazine-2,1′-cyclobutane]-4-yl]phenyl]azetidine-3-carboxylic acid], in data set [1], the AUC was 3340 ng·h/mL and the Cmax was found to be 2290 ng/mL. For the same molecule, in data set [2], the Kp at 4 h stood at 1.2 and the Cmax at 4 h stood at 3430 ng/mL. Further, on NURR-1/RXRγ, the Emax is 139% and the EC50 is 4 nM. The “percentage of activity relative to the BDNF reference” value in data set [3] (compound 1 μM) is listed as 90%. In addition, the “percentage of activity relative to the BDNF reference” value in data set [3] (compound 10 μM) amounted to 80%. In addition, on NURR-1/RXRα, the Emax came to 140% and the EC50 was found to be 3 nM.
As for `O=C(O)C1CN(c2cccc(N3CCOc4cc(C(F)(F)F)ccc43)c2)C1` [Example 115, 1-[3-[7-(trifluoromethyl)-2,3-dihydro-1,4-benzoxazin-4-yl]phenyl]azetidine-3-carboxylic acid], in data set [1], the AUC stood at 51600 ng·h/mL and the Cmax was 24400 ng/mL. Besides, in data set [2], the Kp at 4 h is 0.22 and the Cmax at 4 h was 10600 ng/mL. On NURR-1/RXRγ, the Emax was found to be 129% and the EC50 is 22 nM. Also, the “percentage of activity relative to the BDNF reference” value in data set [3] (compound 1 μM) came out at 103%. The “percentage of activity relative to the BDNF reference” value in data set [3] (compound 10 μM) amounted to 77%. At NURR-1/RXRα, the Emax is 114% and the EC50 amounted to 58 nM.
With `CCCC1Oc2cc(C(F)(F)F)ccc2N(c2cccc(N3CC(C(=O)O)C3)c2)C1=O` (stereo not drawn) [Example 122, 1-[3-[3-oxo-2-propyl-7-(trofluoromethyl)-1,4-benzoxazin-3-yl]phenyl]azetidine-3-caroxylic acid], in data set [1], the AUC amounted to 34100 ng·h/mL and the concentration peaked (Cmax) at 7840 ng/mL. Moreover, in data set [2], the Kp at 4 h worked out at 1.14 and the Cmax at 4 h came out at 3860 ng/mL. Further, on NURR-1/RXRγ, the Emax stood at 95% and the EC50 was found to be 14 nM. Further, the “percentage of activity relative to the BDNF reference” value in data set [3] (compound 1 μM) is reported as 92%. Besides, the “percentage of activity relative to the BDNF reference” value in data set [3] (compound 10 μM) was found to be 39%. Besides, at NURR-1/RXRα, the Emax worked out at 93% and the EC50 worked out at 13 nM.
With `CN(C)Cc1cn(-c2cccc(N3CC(C(=O)O)C3)c2)c2ccc(C(F)(F)F)cc12` [Example 130, 1-[3-[3-(dimethylaminomethyl)-5-(trifluoromethyl)indol-1-yl]phenyl]azetidine-3-carboxylic acid], in data set [1], the AUC is 23000 ng·h/mL and the Cmax is 13800 ng/mL. Also, in data set [2], the Kp at 4 h came out at 0.13 and the highest level (Cmax at 4 h) was 9010 ng/mL. For the same molecule, at NURR-1/RXRγ, the Emax was 109% and the EC50 was 513 nM. The “percentage of activity relative to the BDNF reference” value in data set [3] (compound 1 μM) was found to be 57%. In data set [3] (compound 10 μM), the “percentage of activity relative to the BDNF reference” value was found to be 103%. For the same molecule, at NURR-1/RXRα, the Emax is 113% and the EC50 stood at 246 nM.

These data come from patent US20170066717A1, “NEW PHENYLAZETIDINECARBOXYLATE OR -CARBOXAMIDE COMPOUNDS” (INVENTIVA, priority 2014, published 2017).
